In the supplement of paper PMC10307832:

Experiments:
Assay in all cases: relative viability (nuclei count vs DMSO), 5 days (fraction); higher = more cells survive
IDH-C35 + AZD7762 = compound: Cc1ccccc1C(C(=O)NC1CCCCC1)N(C(=O)Cn1ccnc1C)c1cccc(F)c1 [IDH-C35] + NC(=O)Nc1cc(-c2cccc(F)c2)sc1C(=O)N[C@H]1CCCNC1 [AZD7762] (partner 0.2 µM)
Method in brief: (§1)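 After 5 days of treatment, lung cancer cells in 1536-well plates were fixed and stained in a single step (final 0.05% Triton X-100, 1% formaldehyde, 1 ug/ml Hoechst) and their nuclei counted on 4× images. Treatment had been applied by pin tool the day after seeding as one drug alone or as a fixed anchor-drug dose with five library-drug doses (not always all listed) in √10 steps. Relative viability is the nuclei count of treated wells divided by that of vehicle wells, and values are medians of duplicate plates.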

IDH-C35 + Pictilisib = compound: Cc1ccccc1C(C(=O)NC1CCCCC1)N(C(=O)Cn1ccnc1C)c1cccc(F)c1 [IDH-C35] + CS(=O)(=O)N1CCN(Cc2cc3nc(-c4cccc5[nH]ncc45)nc(N4CCOCC4)c3s2)CC1 [Pictilisib] (partner 1 µM)
Method in brief: as §1

[1] = compound: CC1=C(C(=NN1)C)CC2=C(C3=C(S2)N(C(=O)N(C3=O)C)CC(C)C)C(=O)N4C[C@@H](CO4)O + O=C(c1cc(Cc2n[nH]c(=O)c3ccccc23)ccc1F)N1CCN(C(=O)C2CC2)CC1 [Olaparib] (partner 8 µM)
Method in brief: as §1

[2] = compound: CC1=C(C(=NN1)C)CC2=C(C3=C(S2)N(C(=O)N(C3=O)C)CC(C)C)C(=O)N4C[C@@H](CO4)O + CCNC(=O)c1noc(-c2cc(C(C)C)c(O)cc2O)c1-c1ccc(CN2CCOCC2)cc1 [Luminespib] (partner 0.01 µM)
Method in brief: as §1

Row | Cell Line | relative viability (IDH-C35 + AZD7762; first compound 0.08 µM) | relative viability (IDH-C35 + AZD7762; first compound 0.253 µM) | relative viability (IDH-C35 + AZD7762; first compound 0.8 µM) | relative viability (IDH-C35 + AZD7762; first compound 2.53 µM) | relative viability (IDH-C35 + AZD7762; first compound 8 µM) | relative viability (IDH-C35 + Pictilisib; first compound 0.08 µM) | relative viability (IDH-C35 + Pictilisib; first compound 0.253 µM) | relative viability (IDH-C35 + Pictilisib; first compound 0.8 µM) | relative viability (IDH-C35 + Pictilisib; first compound 2.53 µM) | relative viability (IDH-C35 + Pictilisib; first compound 8 µM) | relative viability ([1]; first compound 0.0025 µM) | relative viability ([1]; first compound 0.007906 µM) | relative viability ([1]; first compound 0.025 µM) | relative viability ([1]; first compound 0.07906 µM) | relative viability ([1]; first compound 0.25 µM) | relative viability ([2]; first compound 0.0025 µM) | relative viability ([2]; first compound 0.007906 µM) | relative viability ([2]; first compound 0.025 µM) | relative viability ([2]; first compound 0.07906 µM) | relative viability ([2]; first compound 0.25 µM)
1 | NCI-H1975 | 0.755 | 0.75 | 0.766 | 0.818 | 0.793 | 0.293 | 0.322 | 0.288 | 0.319 | 0.326 | 0.814 | 0.906 | 0.839 | 0.77 | 0.875 | 0.237 | 0.294 | 0.168 | 0.16 | 0.147
2 | CAL-12T | 0.545 | 0.569 | 0.686 | 0.589 | 0.577 | 0.347 | 0.429 | 0.559 | 0.339 | 0.608 | 0.732 | 0.704 | 0.67 | 0.755 | 0.772 | 0.393 | 0.895 | 0.315 | 0.303 | 0.404
3 | NCI-H1623 |  |  |  |  |  |  |  |  |  |  |  |  |  |  |  | 0.64 | 0.601 | 0.503 | 0.499 | 0.554
4 | HCC-44 | 1 | 0.982 | 0.999 | 1.03 | 1.01 | 0.537 | 0.593 | 0.551 | 0.674 | 0.632 | 1.02 | 1 | 0.952 | 0.891 | 1.05 | 0.97 | 1.11 | 1.03 | 0.958 | 1.38
5 | EKVX | 0.75 | 0.819 | 0.725 | 0.803 | 0.756 | 0.42 | 0.459 | 0.371 | 0.423 | 0.475 | 1.02 | 0.969 | 0.892 | 0.775 | 0.988 | 0.948 | 0.955 | 0.852 | 0.764 | 0.928
6 | NCI-H1651 | 0.454 | 0.518 | 0.463 | 0.438 | 0.413 | 0.562 | 0.522 | 0.504 | 0.492 | 0.434 | 0.178 | 0.172 | 0.205 | 0.193 | 0.199 | 0.843 | 0.762 | 0.969 | 0.855 | 1.09
7 | NCI-H1944 | 0.587 | 0.731 | 0.492 | 0.462 | 0.491 | 0.38 | 0.364 | 0.323 | 0.343 | 0.346 | 0.455 | 0.427 | 0.423 | 0.373 | 0.423 | 0.81 | 1.11 | 0.714 | 0.698 | 0.801
8 | NCI-H1703 |  | 0.141 |  | 0.131 | 0.148 | 0.235 | 0.264 | 0.285 | 0.262 | 0.206 | 0.467 | 0.348 | 0.422 | 0.41 | 0.447 |  |  |  |  | 
9 | Calu-6 |  |  |  |  |  | 0.875 | 0.895 | 0.881 | 0.877 | 0.898 | 0.532 | 0.501 | 0.557 | 0.59 | 0.603 |  |  |  |  | 
10 | EBC-1 |  |  |  |  |  | 0.397 | 0.414 | 0.339 | 0.353 | 0.377 | 0.738 | 0.705 | 0.718 | 0.836 | 0.748 |  |  |  |  | 
11 | SW 1573 |  |  |  |  |  | 0.468 | 0.502 | 0.439 | 0.59 | 0.476 | 0.462 | 0.515 | 0.521 | 0.468 | 0.492 | 0.32 | 0.322 | 0.443 | 0.213 | 0.332
12 | A-427 | 0.709 | 0.725 | 0.687 | 0.679 | 0.707 | 0.621 | 0.801 | 0.615 | 0.466 | 0.791 | 0.762 | 0.769 | 0.706 | 0.729 | 0.886 | 0.949 | 1.19 | 0.921 | 1.03 | 0.957
13 | NCI-H2347 | 0.781 | 0.799 | 0.884 | 0.718 | 0.658 | 0.627 | 0.603 | 0.813 | 0.788 | 0.899 | 0.574 | 0.624 | 0.468 | 0.508 | 0.587 | 0.563 | 0.371 | 0.447 | 0.362 | 0.246
14 | NCI-H1355 | 0.805 | 0.889 | 0.715 | 0.72 | 0.657 | 0.446 | 0.442 | 0.395 | 0.269 | 0.398 | 0.889 | 0.806 | 0.783 | 0.738 | 0.724 | 0.836 | 0.617 | 0.684 | 0.778 | 0.724
15 | NCI-H358 | 0.609 | 0.544 | 0.477 | 0.492 | 0.426 | 0.408 | 0.33 | 0.317 | 0.366 | 0.385 | 0.596 | 0.557 | 0.625 | 0.605 | 0.684 | 0.342 | 0.471 | 0.401 | 0.447 | 0.308
16 | PC-3 [JPC-3] | 0.75 | 0.867 | 0.86 | 0.844 | 0.78 | 0.802 | 0.772 | 0.687 | 0.844 | 0.703 | 1.19 | 0.794 | 1.14 | 1.07 | 1.3 | 0.801 | 0.601 | 0.699 | 0.773 | 0.786
17 | NCI-H2228 |  |  |  |  |  | 0.328 | 0.296 | 0.421 | 0.486 | 0.457 | 0.609 | 0.745 | 0.786 | 0.786 | 0.993 | 0.145 | 0.161 | 0.207 | 0.111 | 0.144
18 | HOP-62 | 0.624 | 0.553 | 0.739 | 0.519 | 0.532 | 0.509 | 0.744 | 0.537 |  | 0.581 | 0.408 | 0.434 | 0.545 | 0.425 | 0.515 | 0.892 | 1.01 | 0.809 | 0.824 | 0.986
